Read-outs that look alike come from different tables or passages of the source.
System: Plasmodium falciparum Dd2 asexual blood stage parasites
Experiment: microbe, parasite or virus in culture
Set-up: species or system Plasmodium falciparum Dd2 in human erythrocytes; single determination (one 11-point concentration-response curve)
Conditions: Plasmodium falciparum, DD2, Erythrocyte, 72 h

SMILES | AC50 (read-out: AC50) | AC50
Cc1ccc(S(=O)(=O)N2CCN(/C(S)=N/Cc3ccc4c(c3)OCO4)CC2)cc1 [MLS001002637-01] | 2.37 µM | –
C#CCN(C)C(=O)C[C@@H]1c2nc(NC(=O)c3ccc(OC)cc3)sc2C[C@@H]2[C@](C)(CO)[C@H](O)CC[C@]21C [NCGC00394313-01] | 2.66 µM | –
CC(C)(C)c1c[nH]c([C@@H]2COCCN2Cc2ccccc2O)n1 [NCGC00395090-01] | 13.7 µM | –
CCN(C(=O)CSc1nc(-c2ccc(C(C)C)cc2)no1)c1cccc(C)c1 [NCGC00127902-01] | 1.06 µM | –
COc1cccc(CN2C(=O)OC3(CCN(Cc4ccccc4OC)CC3)C2(C)c2cccnc2)c1 (stereo not shown) [NCGC00415564-01] | 4.73 µM | –
C/C=C/c1cc(CN2CCN(c3ccccc3)CC2)c(O)c(OC)c1 [MLS001002110-01] | 5.96 µM | –
c1ccc(Oc2ccc(Nc3cnc4ccc(N5CCOCC5)nn34)cc2)cc1 [NCGC00412601-01] | 7.69 µM | –
Cc1ccc(-c2nnc(Nc3ccc(O)cc3)c3ccccc23)cc1[S+](=O)([O-])N1CCN(C)CC1 [NCGC00099994-01] | 6.68 µM | –
Cn1c(=O)[nH]c2nnc(-c3ccc(Cl)c(Cl)c3)nc2c1=O [MLS000768805-01] | 8.41 µM | –
Oc1cc(NCc2ccc(F)cc2)cc2cccnc12 [NCGC00183798-01] | 4.73 µM | –
CCOC(=O)N1CCc2c(sc3c2c(=O)n(Cc2ccccc2)c(=O)n3Cc2ccccc2Cl)C1 [NCGC00111943-01] | 4.73 µM | –
O=C1N=C(NC2CCCC2)C2(CCN(Cc3ccc(F)cc3)C2)N1c1cc(F)cc(F)c1 (stereo not shown) [NCGC00374305-01] | 10.6 µM | –
CN1CCC2(CC1)CN(C(=O)CCc1ccccc1)Cc1ccccc1O2 [NCGC00456463-01] | 6.68 µM | –
COc1cc(C)ccc1OCCSc1nc2ccc(NC(=O)c3cccs3)cc2s1 [NCGC00118564-01] | 13.3 µM | –
CNC(=O)CCn1ncc2cc(OCc3ccccc3-c3ccc(OC)cc3Cl)ccc21 [NCGC00418132-01] | 16.8 µM | –
O=C(NCc1ccco1)c1cc(-c2ccncc2)nc2ccccc12 [MLS000046192-01] | 5.96 µM | –
CCN(CC)C(=O)C[C@@H]1c2nc(NC(=O)c3cccc(F)c3)sc2C[C@@H]2[C@](C)(CO)[C@H](O)CC[C@]21C [NCGC00394316-01] | 9.44 µM | –
O=C(Nc1ccc(Cl)cc1)Nc1nc(-c2ccccc2O)cs1 [MLS000774885-01] | 6.68 µM | –
CCOC(=O)c1ccc2c(c1)N(C(CC)C(=O)Nc1ccccc1OC)C(=O)c1ccccc1S2 (stereo not shown) [NCGC00132065-01] | 9.44 µM | –
CCc1ccc(Oc2c(C(F)(F)F)oc3c(CN4CCCC(C)C4)c(O)ccc3c2=O)cc1 (stereo not shown) [NCGC00101514-01] | 1.33 µM | –
COc1ccc(C)cc1-n1c(-c2ccc(Cl)cc2)cc2c1CC(C)(C)CC2=O [NCGC00110344-01] | 2.99 µM | –
CC(C)C(=O)NC(c1ccc([N+](=O)[O-])cc1)c1c(O)ccc2ccccc12 (stereo not shown) [MLS000571279-01] | 13.3 µM | –
COc1ccccc1NC(=O)N1CC(=O)Nc2sc3c(c2C1c1ccccc1)CCCC3 (stereo not shown) [NCGC00120109-01] | 15 µM | –
Cc1cccc(-c2cc(C3CCN([S+](=O)([O-])c4cccc(C#N)c4)CC3)[nH]n2)c1 [NCGC00433033-01] | 15 µM | –
COc1ccc(Nc2ccccc2NC(=O)c2ccccc2Br)cc1 [MLS001233685-01] | 5.96 µM | –
COc1cccc(CN2CCCC(NCc3cc(C)ccc3-n3cccn3)C2)c1 (stereo not shown) [NCGC00427605-01] | 2.99 µM | –
CC1CCN(CC2CCCCCN2C(=O)Cc2ccccc2)CC1 (stereo not shown) [NCGC00456721-01] | 9.44 µM | –

SMILES | AC50 (read-out: AC50) | AC50
O=C(CC(c1ccc(F)cc1)c1cn(Cc2ccccc2)c2ccc([N+](=O)[O-])cc12)N1CCOCC1 (stereo not shown) [NCGC00473380-01] | 9.44 µM | –
CCO[C@@H]1OC(C(=O)N2CCN(Cc3ccc4c(c3)OCO4)CC2)=C[C@H](c2cn(C(C)=O)c3ccccc23)[C@H]1CCCO [MLS000834519-01] | 9.44 µM | –
CN1CCN(c2ccc(-c3noc([C@@H]4CCCN4C4CCCCC4)n3)cn2)CC1 [NCGC00392835-01] | 19.3 µM | –
CC(=O)c1sc2c(c1C)c(=O)n(-c1ccc(Cl)cc1)c(=O)n2Cc1cc(=O)n2cc(Cl)ccc2n1 [NCGC00104860-01] | 7.5 µM | –
Cc1cc(C)n(CC(O)COc2ccccc2)n1 (stereo not shown) [MLS000525359-01] | 13.3 µM | –
CC1CCN(Cc2c(O)ccc3c(=O)c(Oc4ccccc4Cl)c(C(F)(F)F)oc23)CC1 [NCGC00101482-01] | 1.33 µM | –
O=C(c1ccccc1F)N1CCC2(CC1)COc1ccccc1CN2 [NCGC00477550-01] | 4.33 µM | –
CCOC(=O)c1ccccc1NC(=O)c1cn(CC(C)C)c(=O)c2cc(OC)c(OC)cc12 [NCGC00104537-01] | 8.41 µM | –
Cc1ccc(-c2nnc(Nc3ccc(OCC(N)=O)cc3)c3ccccc23)cc1[S+](=O)([O-])NCC1CCCO1 (stereo not shown) [NCGC00100178-01] | 4.73 µM | –
Cc1nc2c(c(-c3ccc(O)cc3)n1)CN(Cc1ccc(C(F)(F)F)cc1)CCC2 [NCGC00480263-01] | 4.22 µM | –
OC1=C2C(=Nc3ccccc3SC2c2c(F)cccc2Cl)c2ccccc21 (stereo not shown) [NCGC00108823-01] | 9.44 µM | –
Cc1ccc2nc(-c3ccc(O)c(O)c3)cn2c1 [MLS001209043-01] | 13.3 µM | –
Cc1cccc(OCCSc2nc3ccc(NC(=O)c4cccs4)cc3s2)c1 [NCGC00118842-01] | 9.44 µM | –
COC(=O)c1ccc2nc(C)cc(Nc3ccc(O)cc3)c2c1 [NCGC00099848-01] | 9.44 µM | –
O=C(c1cccc(Cl)c1)N1CCC(c2nc(O)c3nnn(Cc4ccc(F)cc4F)c3n2)CC1 [NCGC00116055-01] | 5.96 µM | –
COc1cc2nc(NCc3ccc(C)cc3)n3nc(-c4ccccc4)nc3c2cc1OC [NCGC00112855-01] | 0.266 µM | –
O=C(NCc1ccc(N2CCCC2)cc1)C1CCCN(c2cnn(Cc3ccccc3)c(=O)c2)C1 (stereo not shown) [NCGC00470327-01] | 10.6 µM | –
CCOC(=O)c1c(CN2CCCCC2)n(C)c2cc(Br)c(O)cc12 [MLS000523143-01] | 7.5 µM | –
CCOC(=O)c1ccc(Nc2nc(N)c3cc(OC)c(OC)cc3n2)cc1 [NCGC00107259-01] | 1.88 µM | –
Cc1ccc(NC(=O)N2CCC(OC3CCN([S+](C)(=O)[O-])CC3)CC2)cc1F [NCGC00445040-01] | 15 µM | –
CC1(c2ccccc2)N(Cc2ccccc2F)C(=O)OC12CCN(Cc1cccc(O)c1)CC2 (stereo not shown) [NCGC00415649-01] | 6.68 µM | –
c1ccc2c(c1)CNC1(CCN(Cc3cccc4ccccc34)CC1)CO2 [NCGC00477546-01] | 7.5 µM | –
CCOc1cccc(C2c3[nH]c4ccccc4c3CCN2C(=O)CSCc2ccc(F)cc2)c1 (stereo not shown) [NCGC00134633-01] | 15 µM | –
COc1cccc(CNCCSc2nnnn2C)c1OCc1ccc(Cl)cc1 [NCGC00103033-01] | 2.66 µM | –
CC(Oc1ccc(F)cc1)C(=O)Nc1cc(C(F)(F)F)ccc1-n1cncn1 (stereo not shown) [MLS001160637-01] | 1.68 µM | –
COc1cc(-c2nc(-c3ccccc3)c(-c3ccc(Br)cc3)[nH]2)cc(OC)c1O [NCGC00100017-01] | 2.11 µM | –
COc1ccccc1NC(=O)CSc1nc2c(oc3ccccc32)c(=O)n1-c1ccc(C)cc1 [NCGC00112704-01] | 15 µM | –

SMILES | AC50 (read-out: AC50) | AC50
O[C@]1(c2ccccc2)CCN(Cc2ccco2)C[C@H]1N1CCCC1 [NCGC00442602-01] | 8.41 µM | –
CC1=C[C@@H](CN(C)C)[C@H](C(C)C)C[C@H]1Cc1nc2cccc(C)c2[nH]1 [NCGC00393074-01] | 15.3 µM | –
Cc1noc(C)c1-c1cc2c(cc(-c3ccccc3)n2C)c(-c2cccnc2)n1 [NCGC00417168-01] | 10.9 µM | –
CCn1nnc(NC(=O)c2ccc(C(C)(C)C)cc2)n1 [MLS000035112-01] | 9.44 µM | –
COc1ccc(OCC(=O)NCC2(N3CCN(C)CC3)CCCCC2)cc1 [NCGC00118575-01] | 1.88 µM | –
CC(C)C(=O)NCC1CN(Cc2ccccc2)C(=O)c2c(ccnc2-c2ccc(OCC(=O)O)cc2)O1 (stereo not shown) [NCGC00420601-01] | 2.11 µM | –
CC1=C[C@@H](CN2CCCC2)[C@H](C(C)C)C[C@H]1Cc1nnc(-c2ccc([N+](=O)[O-])cc2)o1 [NCGC00395425-01] | 3.85 µM | –
COc1cccc(CN2CCC3(CC2)OC(=O)N(Cc2ccccc2)C3(C)c2ccccc2)c1 (stereo not shown) [NCGC00415605-01] | 15 µM | –
OC(CNCC(c1ccco1)N1CCCCC1)c1ccccc1 (stereo not shown) [MLS000097545-01] | 5.96 µM | –
COc1ccc(-c2cn3c(n2)sc2cc(C(=O)NCCCN4CCCCC4)ccc23)cc1 [NCGC00121823-01] | 4.73 µM | –
Cc1[nH]c2ccc(OC(F)(F)F)cc2c1CCNCc1cccc([N+](=O)[O-])c1 [MLS001198398-01] | 4.73 µM | –
CCOC(=O)c1c(NC(=O)CSc2nc3ccccc3c(=O)n2-c2ccccc2)sc(C(C)=O)c1C [MLS000335169-01] | 13.3 µM | –
COC(=O)c1ccc2nc(CO[C@H]3CN(Cc4cn(C)c5ccccc45)C[C@H]3F)[nH]c2c1 [NCGC00392963-01] | 13.3 µM | –
CCOc1cc(C(=O)Nc2ccc3nc(Nc4cccc(Cl)c4)cc(C)c3c2)cc(OCC)c1OCC [NCGC00124408-01] | 1.88 µM | –
CC(C)(C)n1[nH]c2c3c(ccc2c1=O)C(=O)c1ccccc1C3=O [MLS000530323-01] | 4.73 µM | –
Cn1cnc2ccc(-c3cccc(O)c3)nc2c1=O [NCGC00414672-01] | 6.11 µM | –
COc1cccc(NC(=O)c2sc3nc(C)c(C(=O)Nc4ccc(C)cc4C)c(-c4cccs4)c3c2N)c1 [NCGC00107008-01] | 5.96 µM | –
COc1ccc(Nc2cc(C)c3cc(NC(=O)c4cc(OC)cc(OC)c4)ccc3n2)cc1 [NCGC00124306-01] | 0.75 µM | –
O=C(CN(C(=O)c1cccc([N+](=O)[O-])c1)C1CCCCC1)Nc1ccc(Cl)c([N+](=O)[O-])c1 [MLS000560351-01] | – | 13.3 µM
CCOc1ccc(NC(=O)CCc2c(C)nc3cc(-c4ccc(Cl)cc4)nn3c2C)cc1 [NCGC00110024-01] | 6.68 µM | –
COc1cccc(NC(=O)N[C@H]2C[C@@H](c3nc(C)no3)N(C)C2)c1 [NCGC00395440-01] | 17.2 µM | –
CN(C(=O)CSc1nc2ccc(NC(=O)CCc3ccccc3)cc2s1)c1ccccc1 [NCGC00118644-01] | 13.3 µM | –
COc1cccc(Nc2ccc3c(n2)C(C)(C(=O)NC2CCC2)CN(C)C3)c1 (stereo not shown) [NCGC00414508-01] | 15.3 µM | –
C#Cc1ccc(C(=O)Nc2ccc(N3CCC(C)CC3)c(C(N)=O)c2)cc1 [MLS000764680-01] | 6.68 µM | –
c1ccc(Sc2cccc3ccccc23)c(CNC2=NCCN2)c1 [MLS000702748-01] | 13.3 µM | –

— article PMC7822874, “Chemoprotective antimalarials identified through quantitative high-throughput screening of Plasmodium blood and liver stage parasites” (Scientific Reports, 2021)
